{"source": "paper PMC8235661", "about": "“Photoelectric Dye, NK-5962, as a Potential Drug for Preventing Retinal Neurons from Apoptosis: Pharmacokinetic Studies Based on Review of the Evidence” (Life, 2021)", "key": {"[1]": {"experiment": "Reactive oxygen species (ROS) assay under simulated sunlight", "type": "physicochemical", "settings": "for Reactive Oxygen Species Generation Singlet oxygen / Reactive Oxygen Species Generation Superoxide: 200 µM, simulated sunlight 1 h, mean ± standard deviation (n = 3)", "protocol": "The ROS assay was designed to detect both singlet oxygen and superoxide generated from photo-irradiated chemicals. Briefly, singlet oxygen was measured in aqueous solution by spectrophotometrically monitoring the bleaching of p-nitrosodimethylaniline at 440 nm using imidazole as a selective acceptor of singlet oxygen. Samples containing the tested chemical (20 or 200 μM), p-nitrosodimethylaniline (50 μM), and imidazole (50 μM) in 20 mM sodium phosphate buffer (pH 7.4) were mixed in a tube. Each sample in 200 μL was transferred into a well of a plastic 96-well plate (clear, untreated, and flat-bottomed) and checked for precipitation under a microscope with an objective lens (×100) before light exposure. The plate was subjected to a measurement of absorbance at 440 nm using a microplate spectrophotometer. The plate was fixed in the quartz reaction container with a quartz cover and then irradiated with the simulated sunlight (ultraviolet A/B and visible light, 250 W/m^2, Suntest CPS plus, Atlas Material Testing Technology, Mount Prospect, IL, USA) for 1 h. After agitation on a plate shaker, the UV absorbance at 440 nm was measured. For the determination of superoxide, samples containing the test chemical (20 or 200 μM) and nitroblue tetrazolium (50 μM) in 20 mM sodium phosphate buffer were irradiated with the simulated sunlight for 1 h and the reduction in nitroblue tetrazolium was measured by the increase in absorbance at 560 nm in the same manner as the singlet oxygen determination. Experiments were performed in triplicate wells in three independent runs. As the final concentration, 200 μM test chemical solutions should be subjected to the ROS assay. However, when precipitation could be observed at 200 μM under the optical microscope, additional experiments should be performed under appropriate dilution (20, 50, or 100 μM)."}, "[2]": {"set-up": "method as in PMID 18185985", "settings": "cited from earlier work"}, "[3]": {"experiment": "PAMPA (parallel artificial membrane permeability assay)", "type": "in vitro ADME", "protocol": "In order to determine the passive membrane diffusion rates, the Corning Gentest Pre-coated PAMPA Plate System was used in the PAMPA test. […] The acceptor plate was then placed on top of the donor plate and incubated at 37 °C without agitation for 4 h. At the end of the incubation, the plates were separated and the solutions from each well of both the acceptor plate and the donor plate were transferred to 96-well plates and mixed with acetonitrile. The final concentrations of compound in both the donor wells and acceptor wells, as well as the concentrations of the initial donor solutions, were analyzed by LC-MS/MS. The permeability of the compound was calculated according to the previous report."}}}
{"smiles": "COc1cc(O)c(C(=O)c2ccccc2)cc1S(=O)(=O)O", "note": "[Sulisobenzone]", "values": [{"measurement": "Reactive Oxygen Species Generation Singlet oxygen", "setting": "[1]", "value": "Not detected"}, {"measurement": "Reactive Oxygen Species Generation Superoxide", "setting": "[1]", "value": "Not detected"}]}
{"smiles": "CCN1C=C\\C(=C/C=C(\\C=C/c2cc[n+](CC)c3ccccc23)c2cc[n+](CC)c3ccccc23)c2ccccc21.[I-].[I-]", "note": "[NK-4, 1-ethyl-4-[(1Z,3E,5E)-1-(1-ethylquinolin-1-ium-4-yl)-5-(1-ethylquinolin-4-ylidene)penta-1,3-dien-3-yl]quinolin-1-ium;iodide]", "values": [{"measurement": "phototoxicity conclusion from ROS assay", "setting": "[1]", "value": "less phototoxic"}]}
{"smiles": "O=C(O)c1cc(/N=N/c2ccc(S(=O)(=O)Nc3ccccn3)cc2)ccc1O", "note": "[sulfasarazine]", "values": [{"measurement": "gastrointestinal absorption in human", "setting": "[2]", "value": 13, "unit": "%"}]}
{"smiles": "C=C[C@H]1C[N@@]2CC[C@H]1C[C@H]2[C@H](O)c1ccnc2ccc(OC)cc12", "note": "[Quinine]", "values": [{"measurement": "Reactive Oxygen Species Generation Singlet oxygen", "setting": "[1]", "value": "602 ± 7 ΔA440 × 1000"}, {"measurement": "Reactive Oxygen Species Generation Superoxide", "setting": "[1]", "value": "348 ± 12 ΔA560 × 1000"}]}
{"smiles": "COCCc1ccc(OCC(O)CNC(C)C)cc1", "note": "(centres unmarked) [metoprolol]", "values": [{"measurement": "PAMPA permeability of reference compound", "setting": "[3]; reference compound at 500 μM", "value": 15, "unit": "nm/s"}]}
{"smiles": "Cc1cc(=O)n(-c2ccccc2)n1C", "note": "[antipyrine]", "values": [{"measurement": "Papp at 4 h, 100 μM", "setting": "[3]; PAMPA, read-out: PAMPA permeability of reference compound", "value": 110, "unit": "nm/s"}]}
